Measurements as given in ChEMBL document CHEMBL1201862, “PubChem BioAssay data set” (2004).
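Method: 48-hour compound exposure of cells in 96-well plates, five concentrations, linear interpolation of endpoints. GI50 = concentration required for 50% inhibition of growth.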 Activity calls are given as the source filed them. Rule as the data show it: active = GI50 up to about 1.1 µM and inactive = higher.

How the values were obtained:
Assay in all cases: DTP human tumour cell line panel, 48 h
HCT-15 = tested on: HCT-15
SF-295 = tested on: SF-295
HOP-62 = tested on: HOP-62
SR = tested on: SR
SNB-75 = tested on: SNB-75
MDA-N = tested on: MDA-N
U-251 = tested on: U-251
OVCAR-8 = tested on: OVCAR-8
SNB-19 = tested on: SNB-19
HOP-92 = tested on: HOP-92
NCI-H23 = tested on: NCI-H23
TK-10 = tested on: TK-10
SK-MEL-5 = tested on: SK-MEL-5
SN12C = tested on: SN12C
NCI-H522 = tested on: NCI-H522
786-0 = tested on: 786-0
K562 = tested on: K562
DU-145 = tested on: DU-145
ACHN = tested on: ACHN
OVCAR-5 = tested on: OVCAR-5

Row | SMILES | GI50 (HCT-15) | GI50 (SF-295) | GI50 (HOP-62) | GI50 (SR) | GI50 (SNB-75) | GI50 (MDA-N) | GI50 (U-251) | GI50 (OVCAR-8) | GI50 (SNB-19) | GI50 (HOP-92) | GI50 (NCI-H23) | GI50 (TK-10) | GI50 (SK-MEL-5) | GI50 (SN12C) | GI50 (NCI-H522) | GI50 (786-0) | GI50 (K562) | GI50 (DU-145) | GI50 (ACHN) | GI50 (OVCAR-5)
1 | COc1cc2c3c(c1)CCCN3CCC2 | > 10 µM | > 10 µM (inactive) | > 10 µM (inactive) | > 10 µM (inactive) | > 10 µM (inactive) | > 10 µM (inactive) | > 10 µM (inactive) | > 10 µM (inactive) | > 10 µM (inactive) | > 10 µM (inactive) | > 10 µM (inactive) | > 10 µM (inactive) | > 10 µM (inactive) | > 10 µM (inactive) | > 10 µM (inactive) | > 10 µM (inactive) | > 10 µM (inactive) | > 10 µM (inactive) | > 10 µM (inactive) | 
2 | CC(=O)OCC1OC(NC(=S)Nn2c(-c3ccccc3)nc3ccccc3c2=O)C(OC(C)=O)C(OC(C)=O)C1OC(C)=O (stereo not drawn) | > 100 µM | > 100 µM (inactive) | 97.7 µM (inactive) | 35.6 µM (inactive) | 96.8 µM (inactive) | > 100 µM (inactive) | > 100 µM (inactive) | > 100 µM (inactive) | > 100 µM (inactive) | 38.4 µM (inactive) | > 100 µM (inactive) |  | 35.8 µM (inactive) | 93.1 µM (inactive) | 45.5 µM (inactive) | > 100 µM (inactive) | > 100 µM (inactive) | > 100 µM (inactive) | > 100 µM (inactive) | > 100 µM (inactive)
3 | C=C1C(=O)OC2C1C(OC(=O)/C(C)=C/C)CC1(C)C(=O)CCC(=C)C21 (stereo not drawn) | 3.15 µM | 18.5 µM (inactive) | 16.9 µM (inactive) | 2.06 µM (inactive) | 15.9 µM (inactive) | 5.07 µM (inactive) | 13.1 µM (inactive) | 12.1 µM (inactive) |  | 1.62 µM (inactive) | 12.8 µM (inactive) | 4.89 µM (inactive) | 7.64 µM (inactive) | 2.15 µM (inactive) | 2.54 µM (inactive) | 4.02 µM (inactive) | 3.13 µM (inactive) | 8.07 µM (inactive) | 2.4 µM (inactive) | 14.8 µM (inactive)
4 | Cc1ccc(S(=O)(=O)NC(=O)NC(Cc2c[nH]c3ccccc23)C(=O)O)cc1 (stereo not drawn) | > 100 µM | > 100 µM (inactive) | > 100 µM (inactive) | > 100 µM (inactive) | > 100 µM (inactive) | > 100 µM (inactive) | > 100 µM (inactive) | > 100 µM (inactive) | > 100 µM (inactive) | > 100 µM (inactive) | > 100 µM (inactive) | > 100 µM (inactive) | > 100 µM (inactive) | > 100 µM (inactive) | > 100 µM (inactive) | > 100 µM (inactive) | > 100 µM (inactive) | > 100 µM (inactive) |  | > 100 µM (inactive)
5 | COc1ccc2c(C)cc(N/N=C/c3ccc(C)s3)nc2c1 | 4.21 µM | 9.62 µM (inactive) | 18.7 µM (inactive) | 5.18 µM (inactive) | 20.9 µM (inactive) | 10.4 µM (inactive) | 13.7 µM (inactive) | 15.2 µM (inactive) | 25.4 µM (inactive) | 19.5 µM (inactive) | 12.3 µM (inactive) | 19 µM (inactive) | 3.43 µM (inactive) | 11.9 µM (inactive) | 3.45 µM (inactive) | 5.89 µM (inactive) | 3.61 µM (inactive) | 6.49 µM (inactive) | 18 µM (inactive) | 12.6 µM (inactive)
6 | COc1cc(S(=O)(=O)N/N=C/c2cc(Br)c(O)c(OC)c2)c(OC)cc1NC(C)=O | 52.6 µM | > 100 µM (inactive) | > 100 µM (inactive) | 80.2 µM (inactive) | > 100 µM (inactive) | 83.6 µM (inactive) | > 100 µM (inactive) | > 100 µM (inactive) | > 100 µM (inactive) | 34.1 µM (inactive) | > 100 µM (inactive) | 77.3 µM (inactive) | 87.7 µM (inactive) | 73.8 µM (inactive) |  | 27 µM (inactive) | 41.5 µM (inactive) | 85.9 µM (inactive) | 78.3 µM (inactive) | > 100 µM (inactive)
7 | COc1cc(/C=C/c2sc3ccccc3[n+]2C)ccc1N(C)C | 37.2 µM | 47.4 µM (inactive) | 17.9 µM (inactive) | 1.94 µM (inactive) | > 10 µM (inactive) | 2.48 µM (inactive) | 6.9 µM (inactive) | 2.93 µM (inactive) | 12.9 µM (inactive) | 1.85 µM (inactive) | 11.5 µM (inactive) | 13.2 µM (inactive) | 4.14 µM (inactive) | 12.9 µM (inactive) | 3.01 µM (inactive) | 12.2 µM (inactive) | 2.1 µM (inactive) | 13.6 µM (inactive) | 11.1 µM (inactive) | 20.3 µM (inactive)
8 | CC(C)c1cc2c(cc1S(=O)(=O)O)[C@@]1(C)CCC[C@@](C)(C(=O)O)C1CC2 (stereo partly drawn) | > 100 µM | > 100 µM (inactive) | > 100 µM (inactive) | > 100 µM (inactive) | > 100 µM (inactive) | > 100 µM (inactive) | > 100 µM (inactive) | > 100 µM (inactive) | > 100 µM (inactive) | > 100 µM (inactive) | > 100 µM (inactive) | > 100 µM (inactive) | > 100 µM (inactive) | > 100 µM (inactive) | > 100 µM (inactive) | > 100 µM (inactive) | > 100 µM (inactive) | > 100 µM (inactive) | > 100 µM (inactive) | > 100 µM (inactive)
9 | Cc1c(C)c(C)n(C2OC(CO)C(O)C(O)C2O)c(=S)c1C#N (stereo not drawn) | > 100 µM | > 100 µM (inactive) | > 100 µM (inactive) | > 100 µM (inactive) | > 100 µM (inactive) | > 100 µM (inactive) | > 100 µM (inactive) | > 100 µM (inactive) | > 100 µM (inactive) | > 100 µM (inactive) | > 100 µM (inactive) | > 100 µM (inactive) | > 100 µM (inactive) | > 100 µM (inactive) | > 100 µM (inactive) | > 100 µM (inactive) | > 100 µM (inactive) | > 100 µM (inactive) | > 100 µM (inactive) | > 100 µM (inactive)
10 | C=CN1CCN(c2ccccc2)P1(=O)Oc1ccccc1 (stereo not drawn) | > 100 µM | > 100 µM (inactive) | > 100 µM (inactive) | > 100 µM (inactive) | 16.4 µM (inactive) | 63.4 µM (inactive) | > 100 µM (inactive) | 89.3 µM (inactive) | > 100 µM (inactive) | 50.9 µM (inactive) | > 100 µM (inactive) | 39.9 µM (inactive) | 87.7 µM (inactive) | > 100 µM (inactive) | 31.6 µM (inactive) | > 100 µM (inactive) | > 100 µM (inactive) | > 100 µM (inactive) | 48.8 µM (inactive) | > 100 µM (inactive)
11 | CC1=N[C@@](C)(C2CC3C=CC2C3=O)COC1=O (stereo partly drawn) |  | > 100 µM (inactive) | > 100 µM (inactive) | > 100 µM (inactive) | > 100 µM (inactive) | > 100 µM (inactive) | > 100 µM (inactive) | > 100 µM (inactive) | > 100 µM (inactive) | > 100 µM (inactive) | > 100 µM (inactive) | > 100 µM (inactive) | > 100 µM (inactive) | > 100 µM (inactive) | > 100 µM (inactive) | > 100 µM (inactive) | > 100 µM (inactive) | > 100 µM (inactive) | > 100 µM (inactive) | > 100 µM (inactive)
12 | Nc1nc(Cl)nc2c1ncn2C1CCC(COP(=O)(O)OP(=O)(O)OP(=O)(O)O)O1 (stereo not drawn) | 34.8 µM | 17.9 µM (inactive) | 19.2 µM (inactive) | 23.1 µM (inactive) | 34.4 µM (inactive) | 38 µM (inactive) | 37.5 µM (inactive) | 21.4 µM (inactive) | > 100 µM (inactive) | 23.7 µM (inactive) | 19.9 µM (inactive) | 25.1 µM (inactive) |  | 38.8 µM (inactive) | 25.8 µM (inactive) | 37.3 µM (inactive) |  | 23.3 µM (inactive) | 25.2 µM (inactive) | 22.8 µM (inactive)
13 | COC(=O)[C@@H]1[C@H](O)[C@H](C)[C@H](O)[C@H](C)/C=C\C=C(\C)C(=O)Nc2c(C)c(OC(C)=O)c3c(c2O)C(=O)C(C)=C2OCOC(=C23)/C(C)=C/[C@@H](O)[C@H](O)[C@@H](C)[C@H]1OC(C)=O |  | > 100 µM (inactive) | > 100 µM (inactive) | 33 µM (inactive) | > 100 µM (inactive) | 22.2 µM (inactive) | > 100 µM (inactive) | 43.8 µM (inactive) | 21.5 µM (inactive) | 80.5 µM (inactive) | > 100 µM (inactive) |  | 57.4 µM (inactive) | 36.8 µM (inactive) |  | > 100 µM (inactive) | 52.7 µM (inactive) | > 100 µM (inactive) | > 100 µM (inactive) | > 100 µM (inactive)
14 | Cc1cc(C)cc(Nc2cc(O)nc(O)n2)c1 | > 100 µM | > 100 µM (inactive) | > 100 µM (inactive) | > 100 µM (inactive) | 15.8 µM (inactive) | > 100 µM (inactive) | > 100 µM (inactive) | > 100 µM (inactive) | > 100 µM (inactive) | > 100 µM (inactive) | > 100 µM (inactive) | > 100 µM (inactive) | > 100 µM (inactive) | > 100 µM (inactive) |  | > 100 µM (inactive) | > 100 µM (inactive) | > 100 µM (inactive) | > 100 µM (inactive) | > 100 µM (inactive)
